Reference: article PMC11035632, “Discovery of gefitinib-1,2,3-triazole derivatives against lung cancer via inducing apoptosis and inhibiting the colony formation” (Scientific Reports, 2024)

Assays:
[1] = tested on: Bcl-2, caspase9, Cleaved-Caspase3, Cleaved-PARP, MMP9 in H1299 cells; test: Western blot of apoptosis- and migration-related proteins; assay type: cell-based, human; details: H1299, 4, 8 or 16 μM, 48 h
Description: We conducted an in-depth investigation into the mechanism of apoptosis induced by compounds 7a and 7j. The Bcl-2 protein family is located upstream of the apoptosis signaling pathway. Bcl-2 proteins play an anti-apoptotic role by inhibiting the release of cytochrome C (cyt-c) from mitochondria. Previous literature reports that many anticancer drugs induce apoptosis by downregulating Bcl-2 expression. During apoptosis, the expression of Bcl-2 is inhibited, cyt-c is released, and it binds with the apoptotic protease activation factor to form the apoptosome. This triggers a cascade reaction of Caspase family proteins, with apoptosome promoting the activation of Caspase9. Activated Caspase9 then activates Caspase3, forming the Caspase3 cleavage body, which further activates downstream PARP protein, ultimately promoting cell apoptosis. […] After treating H1299 cells with different concentrations of compounds for 48 h, cell proteins were extracted, and western blot was used to detect the expression changes of apoptosis-related proteins.
Firstly, H1299 cells were treated with different concentrations concentrations of 7a and 7j at 4, 8 and 16 μmol/L for 48 h, cells were harvested using RIPA lysate (R0010, Solarbio) and centrifuged at 12,000 rpm for 15 min at 4 °C, and then the concentration of total protein was measured and taken from the supernatant. Protein was separated by 12% SDS–polyacrylamide gel electrophoresis and transferred to nitrocellulose filter membrane. after blocking in 5% milk for 2 h, the membranes were incubated with specific primary antibody at 4 °C overnight. Next day, NC membranes were incubated for 1 h at room temperature with appropriate secondary antibodies, and then Protein bands was visualizing by chemiluminescence detection (ECL kit, Genview).

A549 cells = test: CCK-8 assay for cell proliferation and cytotoxicity, A549; assay type: cell-based; details: Homo sapiens, CCK-8, 48 h
Description: A549 cells were cultured in a humidified incubator at 37 °C with 5% CO2 in Ham’s F-12 K (PM150910, Procell) supplemented with 10% FBS and 1% Penicillin Streptomycin.
(§1) Three types of lung cells were seeded into 96-well plate at a density of 5 × 10^3 cells per well at logarithmic growth phase and cultured in 37 °C. […] After that, cell viability was determined according to the instruction of the CCK-8 assay. Next, 10 μL of CCK-8 solution was added to each well of the plate and incubate the plate for 1–4 h in the incubator. The absorbance was measured at 450 nm using a microplate reader (Bio-Tek). The percentage of viable cells was measured using the following formula where three independent experiments were performed: [(A450 sample − A450blank)/(A450 control − A450blank)] × 100%.

NCI-H1437 cells = test: CCK-8 assay for cell proliferation and cytotoxicity, NCI-H1437; assay type: cell-based; details: Homo sapiens, CCK-8, 48 h, read-out: IC50 1437
Description: as §1

## COc1cc2ncnc(Nc3cccc(-c4cn(Cc5cc(F)ccc5Br)nn4)c3)c2cc1OCCCN1CCOCC1 [Compound 7a]
[1]
  Bcl-2 protein expression level: decrease
  Cleaved-Caspase3 protein expression level: increased
  Cleaved-PARP protein expression level: increased
  MMP9 protein expression: downregulated
  caspase9 protein expression level: decrease
A549 cells
  IC50: 3.16 ± 0.11 µM
NCI-H1437 cells
  IC50: 1.83 ± 0.13 µM
